Measured values published in patent publication US9586961B2, “Homopiperazine derivatives as protein tyrosine kinase inhibitors and pharmaceutical use thereof” (LEO PHARMA A/S, priority 2010, dated 2017).

Assays:
Format in all cases: biochemical
JAK3 = target: T1, JAK3 (Homo sapiens, UniProt P52333); assay: JAK3 kinase assay (HTRF, inhibition of phosphorylation of a synthetic peptide); details: catalytic domain, His-tag; 2 μM ATP (Km); read-out: JAK3 kinase inhibitory activity (EC50)
T1 construct: All four purified enzymes contain only the catalytic domain; His (N); purchased Carna Biosciences, Inc; host or cells: baculovirus expression system
How it was run: (§1)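 Baculovirus-expressed human catalytic domains (GST-JAK1, GST-TYK2, His-JAK2, His-JAK3) phosphorylated 1 μM TK substrate-biotin at ATP Km (JAK1 7 μM, JAK2 4 μM, JAK3 2 μM, TYK2 13 μM) in pH 7.0 Hepes for 20-30 min at RT, 0.75% DMSO. EDTA stop, then overnight streptavidin-XL665/cryptate-antibody detection and HTRF read.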

TYK2 = target: T2, TYK2 (Homo sapiens, UniProt P29597); assay: TYK2 kinase assay (HTRF, inhibition of phosphorylation of a synthetic peptide); details: catalytic domain aa 871-1187, GST-tag; 13 μM ATP (Km); read-out: TYK2 kinase inhibitory activity (EC50)
T2 construct: JAK1 (aa 850-1154) and TYK2 (aa 871-1187) are expressed with an N-terminally fused GST-tag; GST (N); purchased Carna Biosciences, Inc; host or cells: baculovirus expression system
T2 sequence (P29597 871-1187): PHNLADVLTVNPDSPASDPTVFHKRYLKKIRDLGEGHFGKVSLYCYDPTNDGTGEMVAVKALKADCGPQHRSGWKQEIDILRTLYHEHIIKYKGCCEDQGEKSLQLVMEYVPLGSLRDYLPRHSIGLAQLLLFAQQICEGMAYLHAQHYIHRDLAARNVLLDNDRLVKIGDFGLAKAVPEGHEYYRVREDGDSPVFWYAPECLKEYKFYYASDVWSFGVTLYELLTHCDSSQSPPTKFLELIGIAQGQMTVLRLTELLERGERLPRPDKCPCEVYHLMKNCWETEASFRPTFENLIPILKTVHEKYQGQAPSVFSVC
Procedure: JAK1, JAK2, JAK3 and TYK2 Kinase Assays:
Human baculovirus-expressed JAK1, 2, 3 and TYK2 were purchased from Carna Biosciences, Inc. All four purified enzymes contain only the catalytic domain. JAK1 (aa 850-1154) and TYK2 (aa 871-1187) are expressed with an N-terminally fused GST-tag, and JAK2 and JAK3 with an N-terminally fused His-tag. Inhibition of phosphorylation of a synthetic peptide was measured in an HTRF-based assay using the TK substrate-Biotin from the CisbioHTRFKinEASE TK kit. First, 2 μl of TK solution (TK substrate-biotin in kinase buffer [1× enzymatic buffer from HTRFKinEASE TK kit, 1 mM DTT]) is added to a plate containing 1 μl prediluted compound (final assay concentration DMSO: 0.75%). Then, 5 μl kinase-ATP mix (prepared in kinase buffer) is added to the wells and the plates are incubated at RT for 20-30 min. For all four kinases a concentration of ATP that corresponded to the Km for ATP was used. The final concentrations of buffers, substrate, kinase and ATP were: JAK1: 50 mMHepes buffer pH 7.0, 0.01% BSA, 10 mM MgCl2, 1 mM DTT, 7 μM ATP, 50 nMSEB, 1 μM TK Substrate-Biotin and 5 ng JAK1; JAK2: 50 mM Hepes buffer pH 7.0, 0.01% BSA, 5 mM MgCl2, 1 mM DTT, 4 μM ATP, 1 μM TK Substrate-Biotin and 0.1 ng JAK2; JAK3: 50 mMHepes buffer pH 7.0, 0.01% BSA, 5 mM MgCl2, 1 mM DTT, 2 μM ATP, 1 μM TK Substrate-Biotin and 0.3 ng JAK3; TYK2: 50 mMHepes buffer pH 7.0, 0.01% BSA, 5 mM MgCl2, 1 mM DTT, 13 μM ATP, 50 nMSEB, 1 μM TK Substrate-Biotin and 0.8 ng TYK2. Thereafter, the kinase reaction is stopped by adding 4 μl detection mix (final concentrations: 50 mM Hepes buffer pH 7.0, 0.01% BSA, 0.8 M KF, 20 mM EDTA, 42 nM Streptavidin-XL665 and 1:400 STKAbCryptate) and the plates are incubated overnight in the dark. The HTRF signal is read using an Envision plate reader.

JAK1 = target: T3, JAK1 (Homo sapiens, UniProt P23458); assay: JAK1 kinase assay (HTRF, inhibition of phosphorylation of a synthetic peptide); details: catalytic domain aa 850-1154, GST-tag; 7 μM ATP (Km); read-out: JAK1 kinase inhibitory activity (EC50)
T3 construct: JAK1 (aa 850-1154) and TYK2 (aa 871-1187) are expressed with an N-terminally fused GST-tag; GST (N); purchased Carna Biosciences, Inc; host or cells: baculovirus expression system
How it was run: as §1

JAK2 = target: T4, JAK2 (Homo sapiens, UniProt O60674); assay: JAK2 kinase assay (HTRF, inhibition of phosphorylation of a synthetic peptide); details: catalytic domain, His-tag; 4 μM ATP (Km); read-out: JAK2 kinase inhibitory activity (EC50)
T4 construct: All four purified enzymes contain only the catalytic domain; His (N); purchased Carna Biosciences, Inc; host or cells: baculovirus expression system
How it was run: as §1

T4 sequence (O60674 849-1124 limits assumed): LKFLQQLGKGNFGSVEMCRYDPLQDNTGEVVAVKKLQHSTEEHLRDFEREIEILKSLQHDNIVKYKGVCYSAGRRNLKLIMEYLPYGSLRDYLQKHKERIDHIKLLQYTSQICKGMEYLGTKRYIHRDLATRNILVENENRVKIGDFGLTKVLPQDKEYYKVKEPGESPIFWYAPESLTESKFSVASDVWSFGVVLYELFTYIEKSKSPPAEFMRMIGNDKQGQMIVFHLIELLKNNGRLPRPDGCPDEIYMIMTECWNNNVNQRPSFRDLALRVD
T3 sequence (P23458 850-1154): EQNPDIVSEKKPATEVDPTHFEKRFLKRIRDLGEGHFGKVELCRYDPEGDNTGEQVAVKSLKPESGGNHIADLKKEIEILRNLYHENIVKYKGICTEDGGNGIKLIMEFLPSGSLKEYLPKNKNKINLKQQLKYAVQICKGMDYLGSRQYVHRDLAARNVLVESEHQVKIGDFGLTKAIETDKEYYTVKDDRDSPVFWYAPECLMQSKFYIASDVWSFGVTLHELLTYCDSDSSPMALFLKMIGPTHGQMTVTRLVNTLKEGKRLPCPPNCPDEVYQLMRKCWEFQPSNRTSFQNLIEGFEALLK
T1 sequence (P52333 822-1111 limits assumed): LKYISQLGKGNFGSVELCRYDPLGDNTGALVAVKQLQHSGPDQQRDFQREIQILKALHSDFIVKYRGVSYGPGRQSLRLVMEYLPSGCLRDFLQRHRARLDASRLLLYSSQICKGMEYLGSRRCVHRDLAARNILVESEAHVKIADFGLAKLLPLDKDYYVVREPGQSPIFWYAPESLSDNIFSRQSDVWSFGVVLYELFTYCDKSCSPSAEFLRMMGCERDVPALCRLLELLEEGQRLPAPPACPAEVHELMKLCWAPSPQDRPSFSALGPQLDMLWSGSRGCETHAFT

SMILES | EC50 (JAK3) | EC50 (TYK2) | EC50 (JAK1) | EC50 (JAK2)
CNS(=O)(=O)c1ccc(C(=O)N2CCN(c3ncnc4[nH]ccc34)CC3(CC3)C2)cc1 [Example 72, N-methyl-4-[5-(7H-pyrrolo[2,3-d]pyrimidin-4-yl)-5,8-diazaspiro[2.6]nonane-8-carbonyl]benzenesulfonamide] | 100 to 1000 nM | > 1000 nM | 100 to 1000 nM | < 100 nM
Cn1c(C(=O)N2CCN(c3ncnc4[nH]ccc34)CC3(CC3)C2)ccc1S(N)(=O)=O [Example 35, 1-methyl-5-[5-(7H-pyrrolo[2,3-d]pyrimidin-4-yl)-5,8-diazaspiro[2.6]nonane-8-carbonyl]pyrrole-2-sulfonamide] | 100 to 1000 nM | > 1000 nM | 100 to 1000 nM | 100 to 1000 nM
S=C(CC1CCCC1)N1CCCN(c2ncnc3[nH]ccc23)CC12CC2 [Example 95, 2-cyclopentyl-1-[5-(7H-pyrrolo[2,3-d]pyrimidin-4-yl)-5,9-diazaspiro[2.6]nonan-9-yl]ethanethione] | 100 to 1000 nM | > 1000 nM | < 100 nM | 100 to 1000 nM
CCCCC(=O)Nc1nc(N2CCN(Cc3ccccc3)CC3(CC3)C2)c2cc[nH]c2n1 [Example 282, N-[4-(5-benzyl-5,8-diazaspiro[2.6]nonan-8-yl)-7H-pyrrolo[2,3-d]pyrimidin-2-yl]pentanamide] | > 1000 nM | > 1000 nM | > 1000 nM | > 1000 nM
CNS(=O)(=O)c1cc(C(=O)N2CCN(c3ncnc4[nH]ccc34)CC3(CC3)C2)sc1C [Example 26, N,2-dimethyl-5-[5-(7H-pyrrolo[2,3-d]pyrimidin-4-yl)-5,8-diazaspiro[2.6]nonane-8-carbonyl]thiophene-3-sulfonamide] | 100 to 1000 nM | > 1000 nM | 100 to 1000 nM | < 100 nM
CS(=O)(=O)c1ccc(CC(=O)N2CCN(c3ncnc4[nH]ccc34)CC3(CC3)C2)cc1 [Example 55, 2-(4-methylsulfonylphenyl)-1-[5-(7H-pyrrolo[2,3-d]pyrimidin-4-yl)-5,8-diazaspiro[2.6]nonan-8-yl]ethanone] | 100 to 1000 nM | > 1000 nM | < 100 nM | < 100 nM
O=C(c1cnsn1)N1CCCN(c2ncnc3[nH]ccc23)CC12CC2 [Example 203, [5-(7H-pyrrolo[2,3-d]pyrimidin-4-yl)-5,9-diazaspiro[2.6]nonan-9-yl]-(1,2,5-thiadiazol-3-yl)methanone] | 100 to 1000 nM | 100 to 1000 nM | < 100 nM | < 100 nM
c1ccc(CN2CCN(c3ncnc4[nH]ccc34)CC3(CC3)C2)cc1 [Example 107, 4-(5-benzyl-5,8-diazaspiro[2.6]nonan-8-yl)-7H-pyrrolo[2,3-d]pyrimidine] | > 1000 nM | > 1000 nM | > 1000 nM | > 1000 nM
NS(=O)(=O)c1ccc(CCC(=O)N2CCN(c3ncnc4[nH]ccc34)CC3(CC3)C2)cc1 [Example 34, 4-[3-oxo-3-[5-(7H-pyrrolo[2,3-d]pyrimidin-4-yl)-5,8-diazaspiro[2.6]nonan-8-yl]propyl]benzenesulfonamide] | < 100 nM | 100 to 1000 nM | < 100 nM | < 100 nM
O=C(CCC(F)(F)F)N1CCN(c2ncnc3[nH]ccc23)CCC12CC2 [Example 45, 4,4,4-trifluoro-1-[6-(7H-pyrrolo[2,3-d]pyrimidin-4-yl)-6,9-diazaspiro[2.6]nonan-9-yl]butan-1-one] | 100 to 1000 nM | > 1000 nM | 100 to 1000 nM | 100 to 1000 nM
